Test results as given in patent US20120295907A1, “INSECTICIDAL COMPOUNDS” (SYNGENTA CROP PROTECTION, LLC, priority 2009, published 2012).

What was measured:
Type in all cases: in vivo
[1] = test system: Spodoptera littoralis; experiment: Spodoptera littoralis (Egyptian Cotton Leafworm) cotton leaf disc spray test; settings: foliar, 72 h, 200 ppm spray on cotton leaf discs, L1 larvae, mortality, feeding behavior, growth regulation 3 DAT
[2] = test system: Heliothis virescens; experiment: Heliothis virescens (Tobacco Budworm) egg test on artificial diet; settings: 96 h, 200 ppm (concentration in well 18 ppm), eggs 0-24 h old on artificial diet, 4 days, egg mortality, larval mortality, growth regulation
[3] = test system: Plutella xylostella; experiment: Plutella xylostella (Diamond Back Moth) artificial diet MTP test; settings: 144 h, 200 ppm (concentration in well 18 ppm), L2 larvae, 6 days, larval mortality, growth regulation
[4] = test system: Tetranychus urticae; experiment: Tetranychus urticae (Two-Spotted Spider Mite) bean leaf disc spray test; settings: foliar, 192 h, 200 ppm spray on bean leaf discs, mite populations of mixed ages, 8 days, egg, larval and adult mortality, read-out: control of Tetranychus urticae
[5] = test system: Myzus persicae; experiment: Myzus persicae (Green Peach Aphid) sunflower leaf disc spray test; settings: foliar, 144 h, 200 ppm spray on sunflower leaf discs, aphid population of mixed ages, 6 DAT, mortality
[6] = test system: Diabrotica balteata; experiment: Diabrotica balteata (Corn Root Worm) artificial diet MTP test; settings: 120 h, 200 ppm (concentration in well 18 ppm), L2 larvae, 5 days, larval mortality, growth regulation
[7] = test system: Thrips tabaci; experiment: Thrips tabaci (Onion Thrips) sunflower leaf disc spray test; settings: foliar, 168 h, 200 ppm spray on sunflower leaf discs, population of mixed ages, 7 days, mortality

Measured: pest or weed control at 200 ppm

COc1c(NC(=O)c2ccc(F)cc2Cl)cccc1C(=O)Nc1c(Cl)cc(C(F)(C(F)(F)F)C(F)(F)C(F)(F)F)cc1Br (centres unmarked) [B2, N-[2-bromo-6-chloro-4-(1,2,2,3,3,3-hexafluoro-1-trifluoromethylpropyl)phenyl]-3-(4-fluoro-2-chlorobenzoylamino)-2-methoxybenzamide]
not listed: [6] | [7]
≥ 80%: all other assays above

COc1c(NC(=O)c2ccccc2Cl)cccc1C(=O)Nc1c(Cl)cc(C(F)(C(F)(F)F)C(F)(F)C(F)(F)F)cc1Br (centres unmarked) [B5]
not listed: [7]
≥ 80%: all other assays above

COc1c(NC(=O)c2ccc(C#N)cc2)cccc1C(=O)Nc1c(Cl)cc(C(F)(C(F)(F)F)C(F)(F)C(F)(F)F)cc1Br (centres unmarked) [B6]
not listed: [6] | [7]
≥ 80%: all other assays above

COc1c(NC(=O)c2ccc([N+](=O)[O-])cc2)cccc1C(=O)Nc1c(Cl)cc(C(F)(C(F)(F)F)C(F)(F)C(F)(F)F)cc1Br (centres unmarked) [B7]
not listed: [6] | [7]
≥ 80%: all other assays above

COc1c(NC(=O)c2ccc(C)cc2)cccc1C(=O)Nc1c(Cl)cc(C(F)(C(F)(F)F)C(F)(F)C(F)(F)F)cc1Br (centres unmarked) [B8]
not listed: [6] | [7]
≥ 80%: all other assays above

COc1c(NC(=O)c2ccc(C(F)(F)F)cc2)cccc1C(=O)Nc1c(Cl)cc(C(F)(C(F)(F)F)C(F)(F)C(F)(F)F)cc1Br (centres unmarked) [B15]
not listed: [6] | [7]
≥ 80%: all other assays above

COc1c(NC(=O)c2ccc(F)cc2)cccc1C(=O)Nc1c(Cl)cc(C(F)(C(F)(F)F)C(F)(F)C(F)(F)F)cc1Br (centres unmarked) [B19]
not listed: [6] | [7]
≥ 80%: all other assays above

COc1c(NC(=O)c2cccnc2)cccc1C(=O)Nc1c(Cl)cc(C(F)(C(F)(F)F)C(F)(F)C(F)(F)F)cc1Br (centres unmarked) [B37]
not listed: [2] | [4]
≥ 80%: all other assays above

COc1c(NC(=O)c2cccs2)cccc1C(=O)Nc1c(Cl)cc(C(F)(C(F)(F)F)C(F)(F)C(F)(F)F)cc1Br (centres unmarked) [B44]
not listed: [4]
≥ 80%: all other assays above

COc1c(NC(=O)c2cccnc2SC)cccc1C(=O)Nc1c(Cl)cc(C(F)(C(F)(F)F)C(F)(F)C(F)(F)F)cc1Br (centres unmarked) [B45]
not listed: [4]
≥ 80%: all other assays above

COc1cc(C(=O)Nc2cccc(C(=O)Nc3c(Cl)cc(C(F)(C(F)(F)F)C(F)(F)C(F)(F)F)cc3Br)c2OC)on1 (centres unmarked) [B89]
not listed: [4]
≥ 80%: all other assays above

COc1c(NC(=O)c2csnc2C)cccc1C(=O)Nc1c(Cl)cc(C(F)(C(F)(F)F)C(F)(F)C(F)(F)F)cc1Br (centres unmarked) [B98]
not listed: [7]
≥ 80%: all other assays above

COc1c(NC(=O)c2ccc(C)s2)cccc1C(=O)Nc1c(Cl)cc(C(F)(C(F)(F)F)C(F)(F)C(F)(F)F)cc1Br (centres unmarked) [B137]
not listed: [4]
≥ 80%: all other assays above

COc1c(NC(=O)c2c(F)cc(F)cc2F)cccc1C(=O)Nc1c(Cl)cc(C(F)(C(F)(F)F)C(F)(F)C(F)(F)F)cc1Br (centres unmarked) [B189, N-{3-[2-Bromo-6-chloro-4-(1,2,2,3,3,3-hexafluoro-1-trifluoromethylpropyl)-phenylcarbamoyl]-2-methoxyphenyl}-2,4,6-trifluorobenzamide]
not listed: [6] | [7]
≥ 80%: all other assays above

COc1c(NC(=O)c2ccc(F)cc2Cl)cccc1C(=O)Nc1c(Cl)cc(C(F)(C(F)(F)F)C(F)(F)C(F)(F)F)cc1Cl (centres unmarked) [C1, N-[2,6-dichloro-4-(1,2,2,3,3,3-hexafluoro-1-trifluoromethylpropyl)phenyl]-3-(4-fluoro-2-chlorobenzoylamino)-2-methoxybenzamide]
not listed: [4]
≥ 80%: all other assays above

COc1c(NC(=O)c2ccccc2F)cccc1C(=O)Nc1c(Cl)cc(C(F)(C(F)(F)F)C(F)(F)F)cc1Cl [E1]
not listed: [3] | [4]
≥ 80%: all other assays above

COc1c(NC(=O)c2ccccc2C)cccc1C(=O)Nc1c(Cl)cc(C(F)(C(F)(F)F)C(F)(F)F)cc1Cl [E2]
not listed: [3] | [4]
≥ 80%: all other assays above

COc1c(NC(=O)c2ccc(C)cc2)cccc1C(=O)Nc1c(Cl)cc(C(F)(C(F)(F)F)C(F)(F)F)cc1Cl [E6]
not listed: [4]
≥ 80%: all other assays above

COc1c(NC(=O)c2ccc(OC(F)(F)F)cc2)cccc1C(=O)Nc1c(Cl)cc(C(F)(C(F)(F)F)C(F)(F)F)cc1Cl [E11]
not listed: [4]
≥ 80%: all other assays above

COc1c(NC(=O)c2ccccc2)cccc1C(=O)Nc1c(Cl)cc(C(F)(C(F)(F)F)C(F)(F)F)cc1Cl [E16]
not listed: [4]
≥ 80%: all other assays above

COc1c(NC(=O)c2cccc(F)c2F)cccc1C(=O)Nc1c(Cl)cc(C(F)(C(F)(F)F)C(F)(F)F)cc1Cl [E21]
not listed: [4]
≥ 80%: all other assays above

COc1c(NC(=O)c2c(F)cc(F)cc2F)cccc1C(=O)Nc1c(Cl)cc(C(F)(C(F)(F)F)C(F)(F)F)cc1Br [G3]
not listed: [7]
≥ 80%: all other assays above

COc1c(NC(=O)c2c(F)cc(C#N)cc2F)cccc1C(=O)Nc1c(Cl)cc(C(F)(C(F)(F)F)C(F)(F)F)cc1Br [G4]
not listed: [7]
≥ 80%: all other assays above

COc1c(NC(=O)c2ccc(F)cc2Cl)cccc1C(=O)Nc1c(Cl)cc(C(F)(C(F)(F)F)C(F)(F)F)cc1Br [G5]
not listed: [7]
≥ 80%: all other assays above

COCc1cc(C(F)(C(F)(F)F)C(F)(F)C(F)(F)F)cc(Cl)c1NC(=O)c1cccc(NC(=O)c2ccc(F)cc2Cl)c1OC (centres unmarked) [H25]
not listed: [1] | [4]
≥ 80%: all other assays above

COCc1cc(C(F)(C(F)(F)F)C(F)(F)C(F)(F)F)cc(Br)c1NC(=O)c1cccc(NC(=O)c2c(F)cc(F)cc2F)c1OC (centres unmarked) [I2]
not listed: [1] | [4]
≥ 80%: all other assays above

COCc1cc(C(F)(C(F)(F)F)C(F)(F)C(F)(F)F)cc(Br)c1NC(=O)c1cccc(NC(=O)c2ccc(F)cc2Cl)c1OC (centres unmarked) [I25]
not listed: [1] | [4]
≥ 80%: all other assays above
